Experimental data as given in patent US11787781B2, “Inhibiting ataxia telangiectasia and RAD3-related protein (ATR)” (Celator Pharmaceuticals, Inc., priority 2016, dated 2023).

Assays:
SUM149 cells = test: Cell cycle stage profile, SUM149 cells; type: cell-based; conditions: 24 hours after addition of SN38 and ATR inhibitor
pKa = type: physicochemical; conditions: method not stated
ATM(h) = ATM(h) (Homo sapiens (Human), UniProt Q13315); test: ATM activity, […] KINASEPROFILER; type: biochemical; conditions: estimated IC50
From the text: Estimated IC50 values are as follows (obtained using […] KINASEPROFILER): […]

[1] = tested on: panel of lung cancer cell lines; test: […]-GLO cell viability, free drug monotherapy and combination screening; type: cell-based
Description: In vitro efficacy study was done using […]-GLO Luminescent Cell Viability Assay (Promega) with Corning Cat #3707 384 well White Clear bottom plates. Cells were plated (1000 cells/well) in 384 well format and allowed to incubate at 37° C. for 24 hours. Monotherapy drugs were added at the 24 hr time point and then allowed to incubate at 37° C. for 24 hours. At the 48 hr time point the drugs in media were removed, washed with PBS, and fresh media was added. Cells were then allowed to incubate at 37° C. for 72 hours. […]
At the 120 hr time point media was removed and […]-GLO (CTG) reagent was added (1:1 ratio with PBS). Plates were read using a luminometer (Envision Multilabel reader). […]
Data was analyzed using an in-house algorithm developed using Matlab (Mathworks, Natick Mass.). […]
Data quality control was performed to ensure that the concentration range is optimal according to these rules: (1) if the lowest concentration kills more than 70% of the cells the concentration range is deemed too potent (2) if the highest concentration kills less than 30% of the cells, the concentration range is deemed low or the cell line is too resistant. Additionally, goodness of the fit was evaluated using R^2 and R^2<0.9 is flagged as a bad fit.

ATR/ATRIP(h) = ATR/ATRIP(h) (Homo sapiens (Human), UniProt Q13535); test: Eurofins ATR/ATRIP HTRF assay, p53 Ser15 phosphorylation; type: biochemical; design: key to Top / Bottom: % of DMSO positive control activity; conditions: ATP 10 μM
ATR/ATRIP(h), sequence (Q13535 whole entry): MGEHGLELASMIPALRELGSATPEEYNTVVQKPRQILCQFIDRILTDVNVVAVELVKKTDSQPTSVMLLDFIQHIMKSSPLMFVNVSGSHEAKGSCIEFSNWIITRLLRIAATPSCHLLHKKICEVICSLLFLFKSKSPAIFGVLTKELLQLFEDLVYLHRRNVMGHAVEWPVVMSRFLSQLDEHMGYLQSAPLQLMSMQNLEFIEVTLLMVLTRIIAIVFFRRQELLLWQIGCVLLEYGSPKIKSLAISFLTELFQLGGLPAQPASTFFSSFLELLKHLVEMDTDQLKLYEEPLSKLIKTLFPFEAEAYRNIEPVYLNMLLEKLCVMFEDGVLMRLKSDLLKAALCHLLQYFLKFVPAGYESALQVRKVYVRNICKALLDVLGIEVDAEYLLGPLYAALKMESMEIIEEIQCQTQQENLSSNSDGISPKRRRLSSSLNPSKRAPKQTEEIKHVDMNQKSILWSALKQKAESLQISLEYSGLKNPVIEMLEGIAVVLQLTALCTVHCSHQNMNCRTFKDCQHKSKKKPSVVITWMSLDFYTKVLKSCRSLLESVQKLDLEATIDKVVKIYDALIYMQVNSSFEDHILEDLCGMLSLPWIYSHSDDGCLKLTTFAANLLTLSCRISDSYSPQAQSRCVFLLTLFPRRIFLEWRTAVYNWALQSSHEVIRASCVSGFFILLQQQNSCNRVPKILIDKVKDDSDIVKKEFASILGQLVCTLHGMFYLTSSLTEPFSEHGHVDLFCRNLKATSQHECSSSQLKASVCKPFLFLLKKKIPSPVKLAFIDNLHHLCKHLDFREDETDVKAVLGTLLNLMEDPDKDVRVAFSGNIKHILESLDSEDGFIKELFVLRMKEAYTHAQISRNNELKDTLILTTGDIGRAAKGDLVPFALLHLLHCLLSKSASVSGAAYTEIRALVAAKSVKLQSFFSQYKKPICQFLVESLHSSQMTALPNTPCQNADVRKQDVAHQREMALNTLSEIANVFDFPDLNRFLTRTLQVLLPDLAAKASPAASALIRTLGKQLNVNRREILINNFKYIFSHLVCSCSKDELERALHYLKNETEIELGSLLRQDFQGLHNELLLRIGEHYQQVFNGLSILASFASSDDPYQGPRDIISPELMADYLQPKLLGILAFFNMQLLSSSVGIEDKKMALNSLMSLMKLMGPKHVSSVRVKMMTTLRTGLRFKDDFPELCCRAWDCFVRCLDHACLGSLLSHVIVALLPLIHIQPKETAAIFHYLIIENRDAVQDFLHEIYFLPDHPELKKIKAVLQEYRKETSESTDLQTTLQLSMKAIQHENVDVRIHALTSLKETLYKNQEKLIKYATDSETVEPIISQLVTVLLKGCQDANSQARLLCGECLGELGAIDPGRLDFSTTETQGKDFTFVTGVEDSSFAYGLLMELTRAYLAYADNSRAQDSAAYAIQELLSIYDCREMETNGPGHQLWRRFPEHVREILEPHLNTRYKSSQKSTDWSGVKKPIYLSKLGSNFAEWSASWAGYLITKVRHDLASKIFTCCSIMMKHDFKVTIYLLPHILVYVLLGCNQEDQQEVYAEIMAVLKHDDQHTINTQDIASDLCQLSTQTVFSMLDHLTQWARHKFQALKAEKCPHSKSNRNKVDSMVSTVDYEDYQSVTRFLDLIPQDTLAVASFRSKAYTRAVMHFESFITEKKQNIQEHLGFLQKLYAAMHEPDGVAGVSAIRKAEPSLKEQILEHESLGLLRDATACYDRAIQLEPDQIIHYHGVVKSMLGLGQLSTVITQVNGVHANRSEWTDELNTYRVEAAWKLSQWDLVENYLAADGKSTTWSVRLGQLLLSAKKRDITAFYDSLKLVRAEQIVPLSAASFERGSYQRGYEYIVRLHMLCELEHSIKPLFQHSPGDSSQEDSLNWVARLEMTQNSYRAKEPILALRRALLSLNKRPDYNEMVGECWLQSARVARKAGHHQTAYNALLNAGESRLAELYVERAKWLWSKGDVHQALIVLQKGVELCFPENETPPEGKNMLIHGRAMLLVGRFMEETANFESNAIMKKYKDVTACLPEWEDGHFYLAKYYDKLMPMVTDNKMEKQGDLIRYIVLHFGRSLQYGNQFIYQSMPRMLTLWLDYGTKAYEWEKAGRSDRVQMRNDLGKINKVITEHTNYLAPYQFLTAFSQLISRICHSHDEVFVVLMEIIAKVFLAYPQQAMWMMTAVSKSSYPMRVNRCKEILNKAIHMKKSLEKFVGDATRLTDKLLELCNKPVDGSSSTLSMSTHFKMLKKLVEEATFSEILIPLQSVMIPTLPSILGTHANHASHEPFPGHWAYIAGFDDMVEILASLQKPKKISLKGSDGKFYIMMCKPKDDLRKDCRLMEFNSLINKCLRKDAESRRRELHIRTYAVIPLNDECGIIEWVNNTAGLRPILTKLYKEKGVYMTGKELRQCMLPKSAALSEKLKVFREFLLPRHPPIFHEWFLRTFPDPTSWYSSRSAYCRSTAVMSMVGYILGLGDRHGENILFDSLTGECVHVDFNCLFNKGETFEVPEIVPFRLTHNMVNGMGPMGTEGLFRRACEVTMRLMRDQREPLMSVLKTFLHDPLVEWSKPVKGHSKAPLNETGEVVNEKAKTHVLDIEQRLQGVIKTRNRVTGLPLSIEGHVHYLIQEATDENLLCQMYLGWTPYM
ATR/ATRIP(h), sequence (Q8WXE1 whole entry partner): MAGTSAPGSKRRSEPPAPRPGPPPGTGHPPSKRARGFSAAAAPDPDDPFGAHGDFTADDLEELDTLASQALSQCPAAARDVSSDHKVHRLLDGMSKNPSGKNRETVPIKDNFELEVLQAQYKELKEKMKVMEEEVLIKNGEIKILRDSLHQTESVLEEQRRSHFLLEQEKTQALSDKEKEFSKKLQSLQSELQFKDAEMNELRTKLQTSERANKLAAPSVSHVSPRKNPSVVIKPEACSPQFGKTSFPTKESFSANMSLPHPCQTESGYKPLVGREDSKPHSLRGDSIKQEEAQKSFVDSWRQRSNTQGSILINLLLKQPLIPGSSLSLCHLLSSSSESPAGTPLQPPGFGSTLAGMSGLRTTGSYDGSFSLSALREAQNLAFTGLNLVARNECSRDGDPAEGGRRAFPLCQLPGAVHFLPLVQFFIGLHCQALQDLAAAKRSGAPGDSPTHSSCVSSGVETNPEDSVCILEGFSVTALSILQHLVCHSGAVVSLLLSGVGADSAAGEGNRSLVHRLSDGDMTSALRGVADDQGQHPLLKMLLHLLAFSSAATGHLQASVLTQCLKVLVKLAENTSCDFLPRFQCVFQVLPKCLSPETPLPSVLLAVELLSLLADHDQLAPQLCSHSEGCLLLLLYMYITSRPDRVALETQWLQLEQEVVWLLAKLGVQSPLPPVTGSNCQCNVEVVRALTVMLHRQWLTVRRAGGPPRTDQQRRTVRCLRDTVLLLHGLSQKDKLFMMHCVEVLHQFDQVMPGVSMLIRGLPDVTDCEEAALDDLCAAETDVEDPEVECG
Description: An EC50 determination was conducted for the supplied set of compounds against the kinase ATR/ATRIP(h), using a linear enzyme concentration in the Eurofins ATR/ATRIP HTRF assay using GST tagged full length p53 as the substrate.
ATR/ATRIP phosphorylation of p53 on Ser15 was measured via formation of an energy transfer complex consisting of a Europium-labelled anti-phospho Ser15 p53 antibody and an anti-GST-d2 antibody. All data points were performed in duplicate with DMSO controls and EDTA blanks.
ATR/ATRIP(h) was pre-diluted in 25 mM HEPES pH 8.0, 0.01% Brij-35, 1% Glycerol, 5 mM DTT, 1 mg/mL BSA and assayed in 25 mM HEPES pH 8.0, 0.01% Brij-35, 1% Glycerol, 10 mM MnCl2 using 30 nM GST, cMyc p53-(hu,FL) as the substrate. The reaction was initiated with the addition of ATP to a final concentration of 10 μM.
The individual replicates were expressed in terms of the % of the DMSO positive control activity. The mean activity (% control) of each inhibitor concentration was plotted against the inhibitor concentration, and EC50 values were determined using […] PRISM.
The data expressed as % control activity were plotted against inhibitor concentration, and fitted to a four parameter logistic using […] PRISM. Graphs for each compound are shown alongside the data in the accompanying Excel report.

H358 cells = test: Cell death and growth assay, H358 cells; type: cell-based; conditions: set concentrations, in combination with Gemcitabine
From the text: (§1) In all cases, relative cell proliferation is reduced with the combinations compared to the drugs alone (FIG. 21B-C).

[2] = tested on: total and phospho-ATR (S428), phospho-CHK1 (S317 and S345) in DMS-114 cells; test: Western blot of total and phospho-ATR, phospho-CHK1 in DMS-114 cells; type: cell-based
Description: Whole cell protein lysates were generated after 1, 3, 6 and 24 hours using a 2% SDS containing cell lysis buffer and stored at −80° C. until all samples were collected and run together at the same time for the WesternBlot analysis. The following proteins and phosphoproteins of interest were detected by antibodies purchased from Cell Signaling Technology (see methods and materials part below): total and phospho-ATR (S428), phospho-CHK1 (S317 and S345), γH2AX, beta-actin.
All target and phospho-specific antibodies were purchased from Cell Signaling and/or Epitomics and were used at 1:1000 dilutions. A list of all antibodies is available in Table 6. Standard antibody based Western blot and immunohistochemistry protocols were used. Briefly, 2% SDS based cell lysis buffer was used to collect whole cell lysate for Western Blotting. Secondary antibodies and staining protocols were purchased and followed regarding LiCor Biosciences and/or BD Bioscience.
Cells were grown and treated in a 6 cm dish scale. To harvest cells, medium was removed and quickly replaced by ice cold PBS. PBS was then replaced with 250 μL of 2% SDS lysis buffer. After five minutes of incubation, the lysed cells were scraped off and loaded onto a cell lysate homogenizer microcentrifuge spin-column (QIAshredder, Qiagen, Cat.-Nr. 79656). The filtrate was then loaded onto a 0.2 μm centrifugal filter column (Nanosep MF 0.2_m, Pall, Cat.-Nr. ODM02C34). The lysates were then stored at −80° C.

U2OS cells = test: Cell death and growth assay, U2OS cells; type: cell-based; conditions: set concentrations, in combination with Gemcitabine
Description: U20S and all other cells were grown in (RPMI) supplemented with 10% fetal bovine serum (FBS) and antibiotics. Imaging and time-lapse compatible NucLight red cell lines were generated as recommend by Essen Bioscience Inc. using lentiviral particles, infection and puromycin selection protocols.
The results were compared back to a prediction of cell growth and death with the combination of the two compounds (FIG. 18A).
as §1

CLK1 = CLK1 (Homo sapiens (Human), UniProt P49759); test: Broad kinase panel screening; type: biochemical
CLK1, sequence (P49759 whole entry): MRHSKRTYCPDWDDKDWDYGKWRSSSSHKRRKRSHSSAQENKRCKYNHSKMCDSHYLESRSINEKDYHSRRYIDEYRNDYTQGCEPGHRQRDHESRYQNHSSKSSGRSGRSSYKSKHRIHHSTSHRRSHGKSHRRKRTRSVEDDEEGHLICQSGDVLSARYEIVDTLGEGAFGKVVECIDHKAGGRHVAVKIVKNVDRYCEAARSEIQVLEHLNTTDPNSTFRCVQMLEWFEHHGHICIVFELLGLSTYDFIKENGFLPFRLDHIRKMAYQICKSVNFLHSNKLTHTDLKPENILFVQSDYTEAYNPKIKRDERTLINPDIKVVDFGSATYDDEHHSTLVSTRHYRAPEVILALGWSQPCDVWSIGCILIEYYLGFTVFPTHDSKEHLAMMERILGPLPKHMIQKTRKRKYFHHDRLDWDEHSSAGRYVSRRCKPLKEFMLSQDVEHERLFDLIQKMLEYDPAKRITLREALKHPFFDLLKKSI
From the text: (§2) Example 16: Broad Kinase Panel Screening (359)
(§3) Major hits out of 359 were: ALK, ARK, c-MER, CLK1, DYRK, GSK3a, GSK3b, FLT2, FLT3, MLK1, SIK2, TNIK, and YSK4.

DDR1 = DDR1 (Homo sapiens (Human), UniProt Q08345); test: Broad kinase panel screening; type: biochemical
DDR1, sequence (Q08345 19-913, species assumed): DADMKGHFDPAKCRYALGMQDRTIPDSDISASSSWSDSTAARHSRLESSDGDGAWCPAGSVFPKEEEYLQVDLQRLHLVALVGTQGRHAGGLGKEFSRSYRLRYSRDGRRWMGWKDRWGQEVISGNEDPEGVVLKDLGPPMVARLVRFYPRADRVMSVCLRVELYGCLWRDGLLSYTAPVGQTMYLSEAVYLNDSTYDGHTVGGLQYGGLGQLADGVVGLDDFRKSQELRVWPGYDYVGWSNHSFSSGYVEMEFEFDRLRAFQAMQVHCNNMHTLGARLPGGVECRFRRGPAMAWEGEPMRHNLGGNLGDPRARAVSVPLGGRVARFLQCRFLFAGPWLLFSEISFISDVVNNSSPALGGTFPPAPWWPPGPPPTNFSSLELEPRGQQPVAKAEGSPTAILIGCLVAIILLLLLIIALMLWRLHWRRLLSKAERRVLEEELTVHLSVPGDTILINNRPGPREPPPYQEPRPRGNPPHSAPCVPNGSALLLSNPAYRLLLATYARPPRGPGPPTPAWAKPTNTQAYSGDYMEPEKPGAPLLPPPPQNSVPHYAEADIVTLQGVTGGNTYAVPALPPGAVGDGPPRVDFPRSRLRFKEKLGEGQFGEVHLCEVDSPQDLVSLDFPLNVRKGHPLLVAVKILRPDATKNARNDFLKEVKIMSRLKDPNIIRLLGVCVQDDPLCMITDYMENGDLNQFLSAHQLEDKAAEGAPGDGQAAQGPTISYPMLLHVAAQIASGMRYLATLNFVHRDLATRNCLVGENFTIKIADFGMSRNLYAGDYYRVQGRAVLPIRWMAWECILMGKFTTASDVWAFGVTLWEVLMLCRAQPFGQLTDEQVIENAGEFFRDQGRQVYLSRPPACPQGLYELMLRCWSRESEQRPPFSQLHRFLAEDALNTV
From the text: as §2, §3

[3] = four parameter logistic fit of % control activity

pKa (pKa): 10 | IC50 (ATM(h)): > 10000 nM | potency (IC50) of chemotherapeutic agent combined with ATR inhibitor, vs Compound 6 ([1]; 1 μg/ml ATR inhibitor with Carboplatin, Gemcitabine or Compound B): more potent | EC50 (ATR/ATRIP(h)): 234 nM | Hill (ATR/ATRIP(h); four parameter logistic fit): −0.819 | Bottom (ATR/ATRIP(h); [3]): 1 | Top (ATR/ATRIP(h); [3]): 95 | IC50 (CLK1): 134 nM | IC50 (DDR1): 191 nM
SMILES: CN(C)CCC1CCN(CCS(=O)(=O)c2ccc(-c3cnc(N)c(C(=O)Nc4ccccc4)n3)cc2)CC1 [Compound 5, 3-amino-6-(4-((2-(4-(2-(dimethylamino)ethyl)piperidin-1-yl)ethyl)sulfonyl)phenyl)-N-phenylpyrazine-2-carboxamide]
cell cycle stage profile vs controls (SUM149 cells): larger percentage of cells are arrested in G2 phase | monotherapy cell kill IC50, folds lower than Compound 6 ([1]; monotherapy, 24 h exposure): ~3 folds | relative cell proliferation vs the drugs alone (H358 cells): reduced | phosphorylation signal of CHK1 (S317 and S345) induced by Gemcitabine ([2]; ATR inhibitor 1 μM added to Gemcitabine 16 nM): abrogates the phosphorylation signal of CHK1 | total and phospho-ATR signal ([2]; ATR inhibitor 1 μM, alone or with Gemcitabine 16 nM, up to 24 hrs): strongly reduced | relative cell proliferation vs the drugs alone (U2OS cells): reduced
